Measurements taken from patent publication US11957696B2 (Propella Therapeutics, Inc., priority 2021, dated 2024).

Legend:
[1] = format: physicochemical
Experimental: The solids were filtered and analyzed by XRD to determine the resulting form(s). The solvents used in this study include: water, acetonitrile, isopropyl ether/acetonitrile (1:4), 2-butanol/water (1:1), 1-propanol/water (1:1), t-butanol/water (1:1), ethanol/water (1:1), THF/water (1:1), acetone/water (1:1), dioxane/water (1:1), 2-butanone/water (1:1), methanol, DMF/water (1:1), ethyl acetate/water (1:1), and heptane.
A competitive study was also carried out. […] Samples were stirred for 3 days and filtered.

[2] = IM injection of aqueous suspension and vegetable oil solution of abiraterone acetate; format: in vivo; settings: vegetable oil solution compared with aqueous suspension, rats
Experimental: Typically, the abiraterone prodrugs of the present disclosure are formulated as a non-aqueous solution or suspension. […] For example, as detailed herein, IM injections of an aqueous suspension and a vegetable oil solution of the abiraterone acetate prodrug were evaluated in rats. […] Accordingly, in some embodiments, the abiraterone prodrug formulations herein can include an abiraterone prodrug of the present disclosure (e.g., compound of Formula I or II) dissolved or dispersed in a pharmaceutically acceptable carrier. In some embodiments, the pharmaceutically acceptable carrier can be any suitable nonaqueous vehicle suitable for injection, such as those described in U.S. Pharmacopeia. In some embodiments, the pharmaceutically acceptable carrier can be a pharmaceutically acceptable oil, e.g., a vegetable oil, castor oil, corn oil, sesame oil, cottonseed oil, peanut oil, poppy seed oil, tea seed oil, or soybean oil. In some embodiments, the pharmaceutically acceptable oil can be oils (e.g., described herein), suitable for use as vehicles for injection, e.g., meeting the criteria as described in the corresponding U.S. Pharmacopeia monograph. In some embodiments, the pharmaceutically acceptable oil can be an oil of vegetable origin suitable for use as vehicles for injection. […]

**Q.** Which “thermodynamic stability of polymorph” value [1] does the source give for `CCCCCCCCCC(=O)O[C@H]1CC[C@@]2(C)C(=CC[C@@H]3[C@@H]2CC[C@]2(C)C(c4cccnc4)=CC[C@@H]32)C1` [Form A, abiraterone decanoate] here?
**A.** thermodynamically stable form under ambient conditions

**Q.** For `CC(=O)O[C@H]1CC[C@@]2(C)C(=CC[C@@H]3[C@@H]2CC[C@]2(C)C(c4cccnc4)=CC[C@@H]32)C1` [abiraterone acetate, (3β)-17-(3-Pyridyl)androsta-5, acetate], which “blood plasma levels and duration of exposure of abiraterone” value [2] is on record?
**A.** highest blood plasma levels and the longest duration of exposure
